Measured values taken from ChEMBL document CHEMBL3507680, “University of Dundee, Gates Library screen for HepG2 cell viability”.

Assay: Human HepG2 cell viability assay in 384 well format
Format: toxicity, cell-based
Design: dose 125 nL, time 70.5 hour; concentration not given beside the values
Details: HepG2 cells, read-out: Inhibition

Compound | cytotoxicity at 70.5 h
CNC(=O)C(C)NC(=O)c1ccc(Oc2cccnc2)cc1 (stereo not drawn) | -10.1%
O=C(O)CC(NC(=O)c1cc(Br)c[nH]1)c1ccccc1 (stereo not drawn) | -7.36%
CC(C)c1noc(CS(=O)(=O)CC(=O)NCc2ccccc2)n1 | -9.16%
CC(C)CCOc1ccc(C(C)NC(=O)Cn2cccnc2=O)cc1 (stereo not drawn) | -5.94%
COc1ccc(CCC(=O)Nc2ccncc2C)cc1 | -9.71%
Cc1nc(C2CCCN(C(=O)CN3CCCC3=O)C2)sc1C (stereo not drawn) | -15.5%
O=C(CN1CCCNC1=O)N1CCCC(c2nccs2)C1 (stereo not drawn) | -8.65%
N#Cc1ccc(CNC(=O)NCCC(=O)NC2CCCC2)c(F)c1 | -2.28%
CNc1nc(CNC(=O)Nc2ccc(OC)cc2C)cs1 | -7.81%
Cc1cnc2c(c1)N(C(=O)c1ccc(=O)n(C)c1)CCO2 | -2.79%
O=C(NCCCc1ccc(O)cc1)C1(O)Cc2ccccc2C1 | -8.24%
CC(C)COC(C)C(=O)NCc1ccc(Cn2ccnc2)cc1 (stereo not drawn) | -8.31%
CCS(=O)(=O)NCCCNC(=O)N(C)C(C)c1ccccn1 (stereo not drawn) | -5.57%
Cc1cccc(C)c1CCNC(=O)N1CCCC2(C1)OCCO2 | -5.85%
CC(C)COC(C)C(=O)NCc1ccccc1Cn1ccnc1 (stereo not drawn) | -7%
CCC(C)(NCC(=O)Nc1nc(C)cs1)c1nc(C)cs1 (stereo not drawn) | -0.105%
COc1cccc(CNCc2nnc3n2CC(C(F)(F)F)CC3)c1 (stereo not drawn) | 6.13%
O=C(CCn1ccccc1=O)Nc1ccc(I)cc1 | -10.5%
Cc1ccc(NC(=O)CNc2cccc3c2CCCC3)c(Br)c1 | -8.9%
O=C(NCc1cc[nH]n1)NCC(c1ccccc1Cl)N1CCCC1 (stereo not drawn) | -14.6%
CNC(=O)c1cccc(NC(=O)CN2CCN(S(C)(=O)=O)CC2)c1 | -11.3%
COC(=O)c1cccc(NC(=O)CN2CCN(S(C)(=O)=O)CC2)c1 | -9.51%
COc1ccc(NC(=O)CNc2cccc3c2CCCC3)c(OC)c1 | 29.7%
CN1CCN(c2ncccc2CNc2ncccc2C#N)CC1 | -10.7%

Compound | cytotoxicity at 70.5 h
O=C(c1cn(-c2ccccc2Cl)nn1)N1CCCSCC1 | -9.29%
CC(C)(CNC(=O)OC(C)(C)C)NC(=O)C1CC(=O)N(C2CC2)C1 (stereo not drawn) | 13.1%
C=C(C)CN(Cc1cccc(O)c1)C1CCC(O)CC1 (stereo not drawn) | -6.84%
CCN1CC(C(=O)NC(C)(C)CNC(=O)OC(C)(C)C)CC1=O (stereo not drawn) | -8.18%
N#Cc1cccnc1NCc1cccnc1N1CCC(C(N)=O)CC1 | -9.67%
COc1ccccc1OCC(=O)N1CCN(Cc2noc(C)n2)CC1 | -10.6%
Cc1cnn(CC2CCCN2Cc2cc(=O)n3cccc(C)c3n2)c1 (stereo not drawn) | -7.45%
Cc1cccn2c(=O)cc(CN3CCCCC3Cn3cncn3)nc12 (stereo not drawn) | 7.36%
CC(NC1(CNC(=O)C(C)(C)C#N)CCOCC1)c1ccccc1 (stereo not drawn) | 15.5%
Cc1ccc(C2CSCCN2C(=O)c2ccsc2)o1 (stereo not drawn) | -6.25%
Cc1cc(C)n(-c2cncc(NCCNC(=O)CC3CCCC3)n2)n1 | -4.52%
CC1CCCN(C(=O)c2csc(S(N)(=O)=O)c2)CC1 (stereo not drawn) | -1.03%
FC(F)(F)C1CCc2nnc(CNCc3ccsc3)n2C1 (stereo not drawn) | -2.38%
C[S+]([O-])c1nncn1CC(=O)c1ccc(Cl)c(Cl)c1 (stereo not drawn) | -3.69%
CCN1CC(C(=O)NC(C)(C)CC(C)(C)C)CC1=O (stereo not drawn) | -1.71%
Cc1nc(CN2CCN(C(=O)COCc3ccccc3)CC2)no1 | -9.26%
CCN1CCC(CNC(=O)C2(c3cccc(C)c3)CCCCC2)CC1 | 1.1%
Cc1cnn(CC(C)NCc2nc(-c3ccsc3)oc2C)c1 (stereo not drawn) | -8.91%
CCN1CCC(NC(=O)CN2CC(n3nc(C)cc3C)C2)CC1 | -6.85%
CN(C)CCN1CCN(C(=O)c2ccn(C)c(=O)c2)CC1 | -11.6%
Cc1ccc(C)c(C(=O)N2CCN(C(=O)Cc3ccccn3)CC2)c1 | -8.87%
Fc1ccc(OCCNCCn2cccn2)cc1 | -9.89%
COCc1nc(C(=O)N2CCCC2c2ccc(OC)cc2)cs1 (stereo not drawn) | -14.3%
Cc1cccc(C(=O)N2CCC(c3n[nH]c(C4CC4)n3)CC2)c1 | 20.7%

Compound | cytotoxicity at 70.5 h
N#Cc1ccc(OCCNCCn2cccn2)cc1 | -10.2%
COCc1nc(C(=O)N2CCCC2c2cccs2)cs1 (stereo not drawn) | -7.86%
CC(Cn1cccn1)NCc1csc(-c2ccsc2)n1 (stereo not drawn) | -12.1%
Cc1nn(C)c(N(C)C)c1CNCc1ccnc(N2CCOCC2)c1 | -5.46%
CCn1cnnc1CNC(=O)c1cc(Cl)ccc1I | -10.9%
CCn1cnnc1CNC(=O)c1ccc(Cl)cc1I | -7.84%
CC(=O)Nc1nc(C(=O)NCc2ccc(OC(C)C)nc2)cs1 | -5.15%
CC(=O)Nc1nc(C(=O)NCc2ccc(N3CCOCC3)nc2)cs1 | 14.9%
CCn1cnnc1CNC(=O)c1cc(Cl)ccc1F | -11.5%
COc1c(CNCc2ccnc(N3CCOCC3)c2)c(C)nn1C | -3.59%
O=C(CCNc1ncccn1)N1CCCC(n2cccn2)C1 (stereo not drawn) | -5.02%
CC(C)Cc1nc(CN2CCN(CC(O)c3ccccc3)CC2)no1 (stereo not drawn) | -3.23%
Cn1ccc(C(=O)N2CCN(CC(O)C(C)(C)C)CC2)cc1=O (stereo not drawn) | -5.62%
O=C(CCCNc1ncccn1)N1CCCC(n2cncn2)C1 (stereo not drawn) | -7.32%
CCc1nc(CN2CCCN(C(=O)c3ccco3)CC2)cs1 | 16.2%
Cc1cc(C)n(CC2CCCN2C(=O)c2ccc(NC3CC3)nc2)n1 (stereo not drawn) | 20.6%
COc1ccc(NC(=O)NCC(O)c2ccccc2F)c(OC)c1 (stereo not drawn) | 19.2%
O=S(=O)(NCc1ccccc1Cn1cncn1)N1CCCCCC1 | -7.52%
O=S(=O)(NCc1ccccc1Cn1cncn1)N1CCCCC1 | -10.7%
CCOc1cc(/C=C/c2ncc(C(=O)O)s2)cc(Br)c1OC | -10.4%
CCOc1cc(/C=C/c2ncc(C(=O)O)s2)cc(Br)c1O | -11.1%
CCn1cc(NC(=O)C2CCN(Cc3nc(C(C)C)no3)CC2)cn1 | -6.8%
Cn1cc(C(=O)NCC2CCN(C(=O)NC3CCCCC3)CC2)cn1 | -15.9%
c1ccc(Cc2noc(CN3CCCC(Cn4cncn4)C3)n2)cc1 (stereo not drawn) | -14.5%

Compound | cytotoxicity at 70.5 h
COC(=O)C(c1cc(F)ccc1F)N(C)C(=O)c1cnccn1 (stereo not drawn) | 21.6%
Cc1nc(CN2CCCN(C(=O)CCc3ccco3)CC2)cs1 | -12.4%
Cc1ccc(NC2CCN(C(=O)COC3CCCCC3)CC2)nn1 | 20.5%
Cc1ccc(NC2CCN(C(=O)COCC3CC3)CC2)nn1 | -2.64%
Cc1cc(C)n(CC2CCCN2C(=O)c2c[nH]c(=O)c(Cl)c2)n1 (stereo not drawn) | -11.8%
Cc1ncsc1C(=O)N1CCCC(n2cncn2)C1 (stereo not drawn) | -13.3%
CCn1cc(NC(=O)C2CCN(Cc3noc(C4CC4)n3)CC2)cn1 | -8.03%
CC(C)(C)c1nc(CN2CCCC(Cn3cncn3)C2)no1 (stereo not drawn) | -13.7%
O=C(c1cncc2ccccc12)N1CCC[C@@H]1CO | -11.6%
COc1c(C2CCCN2CC(=O)NCc2ccccn2)c(C)nn1C (stereo not drawn) | -11.4%
COC(=O)C(c1ccccc1)N(C)C(=O)c1ccnc(C)n1 (stereo not drawn) | -8.31%
O=C(NCCNc1cnccn1)N1CCCC(N2CCCC2)C1 (stereo not drawn) | 3.31%
Clc1ccc(OCCCN2CCOC(Cn3cncn3)C2)cc1 (stereo not drawn) | 24.6%
CC(C)Sc1ncccc1C(=O)NCc1ccoc1 | -9.56%
Cc1cc(C)c(CNC(=O)N2CCCC2c2ccc(F)cc2)c(=O)[nH]1 (stereo not drawn) | -6.72%
CC(C)Sc1ncccc1C(=O)NCc1cccc(N(C)C)c1 | 0.244%
N#Cc1cccnc1N1CCCN(C(=O)CCn2cccn2)CC1 | -9.39%
O=C1NCC(C(=O)Nc2ncc(Cc3ccccc3F)s2)N1 (stereo not drawn) | 3.26%
O=C1NCC(C(=O)Nc2ncc(Cc3ccccc3)s2)N1 (stereo not drawn) | 44.7%
Cc1cc(NC(=O)CNC2CCCN(c3cccnn3)C2)on1 (stereo not drawn) | 43.8%
O=C1NCC(C(=O)Nc2ncc(Cc3ccc(F)cc3)s2)N1 (stereo not drawn) | -3.14%
CC(C)(C)c1n[nH]c(C2CN(C(=O)Cn3ccccc3=O)CCO2)n1 (stereo not drawn) | -5.55%
CCCc1n[nH]c(C2CN(C(=O)Cn3ccccc3=O)CCO2)n1 (stereo not drawn) | -4.93%
CC(c1ccc(F)c(F)c1)N1CCN(Cc2nccn2C)CC1 (stereo not drawn) | 47.8%

Compound | cytotoxicity at 70.5 h
CCOc1nnc(CN2CCOC(CNc3cccnn3)C2)s1 (stereo not drawn) | 15%
CC(O)CN1CCN(C(=O)c2cccc(CC#N)c2)CC1 (stereo not drawn) | 12.7%
CC(O)CN1CCN(C(=O)c2ccc(N(C)C)nc2)CC1 (stereo not drawn) | 12%
CN(CCCNC(=O)N1CCCC1c1ccsc1)c1ccccn1 (stereo not drawn) | 16.8%
O=C(NCCN1CCOCC1)c1n[nH]c(=O)c2ccccc12 | -10.8%
O=C(NCCCN1CCCC1)c1n[nH]c(=O)c2ccccc12 | -9.07%
COc1ccc(C2CCCN2C(=O)c2csc(NC(C)=O)n2)cc1 (stereo not drawn) | -20.6%
CN(Cc1cnn(C)c1)C(=O)NC1CCN(c2ncccn2)CC1 | 12.2%
COc1ncccc1NC(=O)C1CCS(=O)(=O)C1 (stereo not drawn) | -15.1%
Cc1ncsc1C(=O)NC1CCN(Cc2ccc(C#N)cc2)CC1 | -14.1%
CC(=O)Nc1nc(C(=O)N2CCCC2c2ccccc2C)cs1 (stereo not drawn) | -19.1%
CCn1cnnc1CNC(=O)NC(C)C(C)C (stereo not drawn) | -17.7%
Cn1cnnc1C1CCN(C(=O)CCCOc2ccccc2F)CC1 | -12.8%
Cc1cccc(-c2nc(CN3CCc4c(ncn4C)C3)no2)c1 | 20.5%
Cc1cc(C)n(CC2CCCN2CC(=O)NC2CCOCC2)n1 (stereo not drawn) | -15.9%
COc1ccc2cc(C(=O)N3CCCCC3Cn3cccn3)[nH]c2c1 (stereo not drawn) | -3.69%
Cc1cc(C)n(C2CN(CC(O)c3ccc4c(c3)OCO4)C2)n1 (stereo not drawn) | -2.16%
CC(O)CN1CCN(C(=O)c2ccc(N(C)C)nn2)CC1 (stereo not drawn) | -4.33%
CC(C)c1nnc2n1CCN(CCCS(=O)(=O)c1ccccc1)C2 | -13.8%
Cn1c(C2CC2)nc2c1CCN(CC(=O)Nc1nncs1)C2 | -18.2%
CN(C)c1ccc(C(=O)N2CCN(C(=O)N3CCCCC3)CC2)nn1 | -18.5%
Cc1ncc2c(n1)CCN(Cc1nc3ccccc3o1)C2 | 0.854%
